How the values were obtained:
[1] = tested on: HCC1143 cells; assay: 384 well plate cell survival after ARID1A siRNA transfection; format: cell-based, human; details: ARID1A siRNA vs control, five continuous days exposure
Description: FIG. 1. […] A. Structure of VE-821 and schematic describing workflow for parallel VE-821 chemosensitisation screens in MCF12A and HCC1143 cells. B. Scatter plots of VE-821 Drug Effect (DE) Z-scores from all 1280 siRNAs used in the in the chemosensitisation screens. The DE Z-score threshold of −2 (red line) was used for defining candidate synthetic lethal interactions is shown. C. Venn diagram of DE<−2 VE-821 sensitisation hits in MCF12A and HCC1143 cells. Numbers shown indicate number of sensitisation genes. Amongst the 30 genes with DE Z-scores <−2 in both cell lines, seven well-established tumour suppressor genes were identified. D. Bar charts illustrating DE Z-scores for control, non-targeting, siRNAs (siALLSTAR, siCON1, siCON2) and ARID1A siRNAs in the chemosensitisation screens. Values shown are median from triplicate screens and error bars represent SD. […]
A siRNA library was purchased from Dharmacon. […] RNAi screening conditions were optimised and raw CellTitre-Glo (Promega) luminescent viability readings were generated as previously described21. […]
(§1) Short-term survival assays were performed in 384-well plates. […] Drug was added 24 h after seeding and cells were continuously exposed to the drug for five days, after which cell viability was estimated using CellTitre-Glo luminescence (Promega). […] Colonies were counted manually. […]

[2] = tested on: Arid1a+/+ and Arid1a−/− mouse embryonic stem (ES) cells; assay: Clonogenic survival of mouse Arid1a isogenic ES cells; format: cell-based; details: p<0.001 ANOVA
Protocol: FIG. 2. In vitro ARID1A/ATR synthetic lethality. A. Chemical structure of VX-970. B. Western blot of ARID1A in human ARID1A isogenic HCT116 cells. C. Image of colonies in 6 well-plate clonogenic assay. HCT116 ARID1A isogenic (^+/+ and ^−/−) cell lines were exposed to increasing concentrations of the VE-821 (0, 0.1, 1 uM) and VX-970 (0, 0.01, 0.05 uM) for 14 days. D and E. Dose response clonogenic survival curve of HCT116 ARID1A isogenic (^+/+ and ^−/−) cell lines exposed to increasing concentrations of the VE-821 and VX-970 for 14 days. Error bars represent SD from triplicate experiments, ANOVA p-value of <0.0001. F. Area under curve (AUC) box whisker comparison plot for human tumor cell lines exposed to VX-970 for five days. ARID1A wild type tumor cell lines (n=15) were compared to ARID1A mutant cell lines (n=9). Student's t-test p=0.00594. G. Dose response clonogenic survival curve of mouse Arid1a isogenic ES cell lines. Experiment was performed as per (C). Error bars represent SD from triplicate experiments, ANOVA p value of <0.0001. H. Western blot of Arid1a protein expression in mouse ES Arid1a isogenic cells. […]
as §1

[3] = tested on: TOV21G (ARID1A mutant) and RMG1 (ARID1A wildtype) cells; assay: Five-day dose response in OCCC cell lines TOV21G and RMG1; format: cell-based, human; details: 5 days exposure
Protocol: FIG. 3. In vivo ARID1A/ATR synthetic lethality. A. Schematic of VX-970 therapy experiment in mice bearing established HCT116 ARID1A^+/+ and ARID1A^−/− xenografts. Cells were inoculated subcutaneously into nude mice and tumors allowed to establish for 10 days. Mice were then randomized to treatment regimens of either VX-970 (60 mg/kg, 4× weekly by oral gavage) or vehicle. Mice were then treated for a subsequent 40 days. Tumor volume was monitored twice weekly. B. Relative tumor volume plot from (A) showing efficacy of VX-970 and selectivity for ARID1A^−/− xenografts* p=0.024, ANOVA. C. Schematic of tumor incidence experiment in mice with non-established HCT116 ARID1A^+/+ and ARID1A^−/− xenografts. Mice were inoculated with cells as before, randomized and then treated with VX-970. […] Tumor volume was monitored twice weekly and overall tumour incidence was assessed 40 days later. […] PARP-1, cleaved PARP-1 (85 kDa fragment) and tubulin were detected by western blot. […] Caspase3/7 activity was assessed using Caspase-Glo and total cellular viability was estimated using CellTitre-Glo. Luminescence ratios for Caspase-Glo (i.e. apoptotic cells) and CellTitre-Glo (ie viable cells) was determined for each dose and normalized to DMSO treated samples. *Student's t-test, p<0.05. […]
Short-term survival assays were performed in 384-well plates. […] Colonies were counted manually. […]

[4] = target: ATR (Homo sapiens, UniProt Q13535); details: ATR catalytic inhibitor; reference 15; cited from earlier work
[5] = tested on: HCT116 ARID1A isogenic (+/+ and −/−) cell lines; assay: Clonogenic survival of ARID1A isogenic cells; format: cell-based, human
Protocol: FIG. 2. In vitro ARID1A/ATR synthetic lethality. A. Chemical structure of VX-970. B. Western blot of ARID1A in human ARID1A isogenic HCT116 cells. C. Image of colonies in 6 well-plate clonogenic assay. HCT116 ARID1A isogenic (^+/+ and ^−/−) cell lines were exposed to increasing concentrations of the VE-821 (0, 0.1, 1 uM) and VX-970 (0, 0.01, 0.05 uM) for 14 days. D and E. Dose response clonogenic survival curve of HCT116 ARID1A isogenic (^+/+ and ^−/−) cell lines exposed to increasing concentrations of the VE-821 and VX-970 for 14 days. Error bars represent SD from triplicate experiments, ANOVA p-value of <0.0001. F. Area under curve (AUC) box whisker comparison plot for human tumor cell lines exposed to VX-970 for five days. ARID1A wild type tumor cell lines (n=15) were compared to ARID1A mutant cell lines (n=9). Student's t-test p=0.00594. G. Dose response clonogenic survival curve of mouse Arid1a isogenic ES cell lines. Experiment was performed as per (C). Error bars represent SD from triplicate experiments, ANOVA p value of <0.0001. H. Western blot of Arid1a protein expression in mouse ES Arid1a isogenic cells. I. Z score box whisker comparison plot for 86 human tumor cell lines transfected with ATR siRNA. Cells lines were transfected with siRNA and cell viability was estimated five days later by Cell Titre Glo reagent.
Short-term survival assays were performed in 384-well plates. Exponentially growing cells were plated at a concentration of 500 cells/well. Drug was added 24 h after seeding and cells were continuously exposed to the drug for five days, after which cell viability was estimated using CellTitre-Glo luminescence (Promega). For clonogenic assays, cells were seeded in 6-well plates (500 cells/well) and continuously exposed to drug 24!h after seeding for 14 days. Media containing fresh drug was replaced every 72 hours. Cells were fixed with 10% trichloroacetic acid and stained with sulphorhodamine B (Sigma-Aldrich, Gillingham, UK). Colonies were counted manually. All cell-based assays were performed at least in triplicate.

Sequence of ATR (Q13535 whole entry): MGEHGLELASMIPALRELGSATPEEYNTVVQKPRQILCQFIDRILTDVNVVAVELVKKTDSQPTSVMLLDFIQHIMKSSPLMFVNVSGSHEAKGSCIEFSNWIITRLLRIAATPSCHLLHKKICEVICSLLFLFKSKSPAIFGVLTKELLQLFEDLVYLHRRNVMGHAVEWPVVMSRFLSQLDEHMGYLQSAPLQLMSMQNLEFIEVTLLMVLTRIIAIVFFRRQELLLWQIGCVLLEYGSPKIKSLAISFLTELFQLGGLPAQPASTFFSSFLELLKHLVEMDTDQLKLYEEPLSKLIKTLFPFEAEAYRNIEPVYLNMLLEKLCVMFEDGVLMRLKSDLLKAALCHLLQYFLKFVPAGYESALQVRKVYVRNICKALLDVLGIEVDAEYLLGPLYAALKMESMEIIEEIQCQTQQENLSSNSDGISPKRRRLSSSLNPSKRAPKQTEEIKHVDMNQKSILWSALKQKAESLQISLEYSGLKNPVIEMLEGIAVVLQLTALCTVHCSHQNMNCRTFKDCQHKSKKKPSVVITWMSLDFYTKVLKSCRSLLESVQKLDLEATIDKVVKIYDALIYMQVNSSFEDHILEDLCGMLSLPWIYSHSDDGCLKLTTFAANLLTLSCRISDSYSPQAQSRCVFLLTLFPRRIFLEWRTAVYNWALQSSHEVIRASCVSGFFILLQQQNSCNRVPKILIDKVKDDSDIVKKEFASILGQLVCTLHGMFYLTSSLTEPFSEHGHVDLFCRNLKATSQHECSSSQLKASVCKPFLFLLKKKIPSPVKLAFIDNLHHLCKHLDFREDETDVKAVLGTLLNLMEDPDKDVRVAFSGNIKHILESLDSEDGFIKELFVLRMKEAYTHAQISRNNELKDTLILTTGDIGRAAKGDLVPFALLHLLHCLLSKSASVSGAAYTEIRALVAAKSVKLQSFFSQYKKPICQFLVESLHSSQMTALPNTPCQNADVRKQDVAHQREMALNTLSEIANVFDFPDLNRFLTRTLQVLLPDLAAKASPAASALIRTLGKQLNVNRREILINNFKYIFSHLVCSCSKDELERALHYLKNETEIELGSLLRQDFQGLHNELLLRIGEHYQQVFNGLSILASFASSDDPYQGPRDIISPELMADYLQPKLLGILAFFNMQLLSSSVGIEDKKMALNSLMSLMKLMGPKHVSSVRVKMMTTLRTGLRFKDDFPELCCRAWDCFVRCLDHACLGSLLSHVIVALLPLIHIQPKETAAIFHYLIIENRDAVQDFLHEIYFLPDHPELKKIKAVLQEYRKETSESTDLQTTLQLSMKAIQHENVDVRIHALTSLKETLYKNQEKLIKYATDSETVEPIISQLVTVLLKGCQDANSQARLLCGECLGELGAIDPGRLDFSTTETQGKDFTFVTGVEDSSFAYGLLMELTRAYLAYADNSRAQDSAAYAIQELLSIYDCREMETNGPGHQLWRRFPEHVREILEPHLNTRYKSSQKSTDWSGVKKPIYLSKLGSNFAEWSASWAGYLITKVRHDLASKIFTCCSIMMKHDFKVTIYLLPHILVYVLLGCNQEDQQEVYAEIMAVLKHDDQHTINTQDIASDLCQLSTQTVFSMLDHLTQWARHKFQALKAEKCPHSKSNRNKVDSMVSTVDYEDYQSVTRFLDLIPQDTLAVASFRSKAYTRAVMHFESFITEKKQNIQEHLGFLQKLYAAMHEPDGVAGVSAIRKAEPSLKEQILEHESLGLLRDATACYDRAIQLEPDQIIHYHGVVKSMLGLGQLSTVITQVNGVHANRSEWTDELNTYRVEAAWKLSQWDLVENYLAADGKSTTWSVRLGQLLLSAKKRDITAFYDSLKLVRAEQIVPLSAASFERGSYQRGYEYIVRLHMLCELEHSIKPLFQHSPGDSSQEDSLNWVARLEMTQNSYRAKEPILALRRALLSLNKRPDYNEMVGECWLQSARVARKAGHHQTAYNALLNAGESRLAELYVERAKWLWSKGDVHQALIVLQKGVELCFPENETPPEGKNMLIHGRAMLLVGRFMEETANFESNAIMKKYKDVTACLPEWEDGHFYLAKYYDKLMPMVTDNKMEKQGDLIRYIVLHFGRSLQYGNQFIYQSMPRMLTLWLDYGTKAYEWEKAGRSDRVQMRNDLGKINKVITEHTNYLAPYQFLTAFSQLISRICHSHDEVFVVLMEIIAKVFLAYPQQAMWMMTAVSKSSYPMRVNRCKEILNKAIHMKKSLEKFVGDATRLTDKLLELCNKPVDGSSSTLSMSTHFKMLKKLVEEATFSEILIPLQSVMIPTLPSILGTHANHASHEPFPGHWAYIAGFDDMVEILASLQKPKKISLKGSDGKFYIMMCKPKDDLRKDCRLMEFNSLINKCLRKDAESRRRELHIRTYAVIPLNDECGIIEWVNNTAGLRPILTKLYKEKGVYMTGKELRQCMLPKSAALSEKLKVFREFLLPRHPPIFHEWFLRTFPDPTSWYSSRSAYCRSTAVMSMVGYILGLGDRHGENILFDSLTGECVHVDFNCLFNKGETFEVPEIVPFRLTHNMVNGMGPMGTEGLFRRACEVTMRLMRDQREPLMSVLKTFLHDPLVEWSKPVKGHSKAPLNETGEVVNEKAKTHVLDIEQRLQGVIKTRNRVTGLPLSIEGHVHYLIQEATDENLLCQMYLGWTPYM
Sequence of ATR (Q8WXE1 whole entry partner): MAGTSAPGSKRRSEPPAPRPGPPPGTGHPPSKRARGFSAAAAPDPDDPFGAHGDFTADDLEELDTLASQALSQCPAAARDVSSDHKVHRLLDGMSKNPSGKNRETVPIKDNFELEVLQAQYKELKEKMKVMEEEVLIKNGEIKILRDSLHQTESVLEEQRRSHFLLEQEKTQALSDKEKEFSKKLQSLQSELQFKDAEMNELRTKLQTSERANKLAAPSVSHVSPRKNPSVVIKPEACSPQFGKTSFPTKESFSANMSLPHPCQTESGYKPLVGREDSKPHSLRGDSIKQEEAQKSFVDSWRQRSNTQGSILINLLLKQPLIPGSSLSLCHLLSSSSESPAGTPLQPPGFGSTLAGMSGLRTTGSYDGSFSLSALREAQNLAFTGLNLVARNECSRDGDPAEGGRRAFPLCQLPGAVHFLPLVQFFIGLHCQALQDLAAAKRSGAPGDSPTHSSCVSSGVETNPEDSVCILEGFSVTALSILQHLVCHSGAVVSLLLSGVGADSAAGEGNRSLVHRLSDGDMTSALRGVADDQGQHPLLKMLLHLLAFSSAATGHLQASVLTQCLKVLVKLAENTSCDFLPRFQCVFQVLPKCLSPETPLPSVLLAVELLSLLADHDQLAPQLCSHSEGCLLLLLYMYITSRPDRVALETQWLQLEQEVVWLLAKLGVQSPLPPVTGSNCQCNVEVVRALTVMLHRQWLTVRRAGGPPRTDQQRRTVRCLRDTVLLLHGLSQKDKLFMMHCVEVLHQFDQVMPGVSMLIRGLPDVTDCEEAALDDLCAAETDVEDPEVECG

Row | Compound | ATRi sensitivity caused by ARID1A siRNA [1] | selective targeting of Arid1a−/− ES cells in clonogenic assays [2] | sensitivity of TOV21G vs RMG1 [3] | Ki [4] [nM] | ARID1A−/− selectivity [5]
1 | CS(=O)(=O)c1ccc(-c2cnc(N)c(C(=O)Nc3ccccc3)n2)cc1 [VE-821, 3-amino-6-(4-methylsulfonylphenyl)-N-phenyl-pyrazine-2-carboxamide] | significantly enhanced sensitivity to VE-821 | selectively targeted Arid1a^−/− ES cells | more sensitive to both VE-821 and VX-970 | 13 | 
2 | CN(Cc1cnc2nc(N)nc(N)c2n1)c1ccc(C(=O)N[C@@H](CCC(=O)O)C(=O)O)cc1 [methotrexate] |  |  |  |  | neither taxol or methotrexate elicited ARID1A^−/− selectivity
3 | CC(=O)O[C@H]1C(=O)[C@@]2(C)[C@H]([C@H](OC(=O)c3ccccc3)[C@]3(O)C[C@H](OC(=O)[C@H](O)[C@@H](NC(=O)c4ccccc4)c4ccccc4)C(C)=C1C3(C)C)[C@]1(OC(C)=O)CO[C@@H]1C[C@@H]2O [taxol] |  |  |  |  | neither taxol or methotrexate elicited ARID1A^−/− selectivity
